Consider two compounds from the NIST ThermoML archive (doi:10.1016/j.jct.2015.09.003).

The conditions of data set [1]: Crystal; DTA.
Data set [2] is described as follows: Molar enthalpy of transition or fusion. As to conditions: Crystal; DSC.

SMILES strings stand for the structures. ± gives the expanded uncertainty stated by the source.

For the compound `CC(C)(C)C1=CC(=O)C(=O)C(C(C)(C)C)=C1` [3,5-di-tert-butyl-o-benzoquinone], the Normal melting temperature in data set [1] came to 115.4 ± 0.6 °C. Besides, in data set [2], the “Molar enthalpy of transition or fusion” value was 6.26 ± 0.141 kcal/mol.
For `CC(C)(C)C1=CC=C(C(C)(C)C)C(=O)C1=O` [3,6-di-tert-butyl-o-benzoquinone], in that order: 202.2 ± 0.6 °C and 6.69 ± 0.151 kcal/mol.
